4 molecules from patent publication US20100209378A1, “Dimethylcyclohexyl Derivatives as Malodor Neutralizers” (GIVAUDAN SA, priority 2007, published 2010) can be followed below.

Structures are written as SMILES.

A short description of experiment [1]: Headspace GC/MS malodor reduction, onion oil. To be noted: method of Example 4; diallyl sulfide and diallyl disulfide measured as standard. Here is the method: (§1) A one liter glass headspace collection jar had placed inside it a 25 ml stoppered glass container which contained 0.5 g of a test compound. 10 ul of hexyl amine or allyl disulphide mercaptan as a representative malodor was injected into the headspace jar. This was left for 15 minutes at 25° C. to equilibrate. One ml/minute of the headspace was drawn for one minute through a Tenax™ headspace trap. The Tenax™ trap was removed and thermally desorbed into an Agilent 6890 GC/MS to analyze the quantity of hexyl amine and allyl disulphide mercaptan respectively in the headspace to determine the initial concentration of the hexyl amine malodor/ally disulphide mercaptan. The glass stopper was removed from the container and the test component and the malodor were left in contact for 60 minutes at 25° C. One ml/minute of the headspace was drawn for one minute through a Tenax™ trap and the amount of malodor remaining was determined as above.
(§2) Evaluation of the malodor reduction potential of the compounds of the present invention on malodors of natural garlic oil and onion oil using the methodology described in Example 4 is shown in Table 2. As standard for determining the reduction of onion oil odor the amount of diallyl sulfide and diallyl disulfide were measured, and propyl methyl disulfide and dipropyl disulfide for determining the reduction of garlic oil odor.

Experiment [2] can be described thus: Sensory panel (LMS) reduction of synthetic axilla malodor on cotton pads. To be noted: 100 ul of 1% solution of test compound on pad with 100 ul 0.1% axilla malodor; panel of 20, LMS. Here is the method:
A 0.1% ethanol solution of synthetic axilla malodor was prepared and a 100 ul aliquot was placed onto cotton pads. 1% solutions of test compounds were prepared and 100 ul dosed on to the axilla treated pads. One pad was left untreated as the control. Each pad was allowed to dry for 15 minutes. The test cotton pads were randomized, and a panel of 20 was used. Each panelist was asked to check a box that represented the strength of the axilla malodor using a Labeled Magnitude Scale (LMS) (Barry G. Green, Pamela Dalton, Beverly Cowart, Greg Shaffer, Krystyna Rankin and Jennifer Higgins. Evaluating the Labeled Magnitude Scale for Measuring Sensations of Taste and Smell. Chemical Senses. Vol. 21, pp 323-334, 1996).
The % reduction of malodor was calculated by: […]
Composition 1 was compared with composition 2 for malodor reduction efficiency using the method described in Example 6.

A short description of experiment [3]: Headspace GC/MS malodor reduction, allyl disulphide. The note with it: 0.5 g test compound, 10 ul malodor in 1 l headspace jar, 60 minutes contact at 25° C. The method, then:
(§3) Amines are key contributors to many household malodors. Sulfides are present in odors associated with bad breath. In order to assess the malodor reduction efficacy of the compounds of the present invention, they were evaluated for their ability to reduce hexyl amine malodor and allyl disulphide by the following method.
as §1

Experiment [4] is described as follows: Headspace GC/MS malodor reduction, hexyl amine. The note with it: 0.5 g test compound, 10 ul malodor in 1 l headspace jar, 60 minutes contact at 25° C. Here is the method: as §3, §1
Experiment [5] can be described thus: Headspace GC/MS malodor reduction, garlic oil. To be noted: method of Example 4; propyl methyl disulfide and dipropyl disulfide measured as standard. The method, then: as §1, §2

Consider `CC(O)C(=O)OC(C)C1CCCC(C)(C)C1` (stereo not shown) [Compound A, 1-(3,3-dimethylcyclohexyl)ethyl 2-hydroxypropanoate], for which the “% Reduction of onion oil odor” value in experiment [1] is 87.2%. Besides, the “% Reduction of Axilla” value in experiment [2] worked out at 77.2%. Also, the “% Reduction of allyl disulphide” value in experiment [3] stood at 81.5%. In addition, in experiment [4], the “% Reduction of hexyl amine” value worked out at 80.3%. For the same molecule, in experiment [5], the “% Reduction of garlic oil odor” value turned out to be 87.7%.
Turning to `CC(OCC(=O)O)C1CCCC(C)(C)C1` (stereo not shown) [Compound B, 2-(1-(3,3-dimethylcyclohexyl)ethoxy)acetic acid], in experiment [1], the “% Reduction of onion oil odor” value worked out at 66.3%. Also, the “% Reduction of Axilla” value in experiment [2] is 67.6%. The “% Reduction of allyl disulphide” value in experiment [3] is 74.6%. Moreover, in experiment [4], the “% Reduction of hexyl amine” value was found to be 91.4%. Also, the “% Reduction of garlic oil odor” value in experiment [5] came out at 73.2%.
Taken in the same sequence, the figures for `CC(OCCO)C1CCCC(C)(C)C1` (stereo not shown) [Compound C, 2-(1-(3,3-dimethylcyclohexyl)ethoxy)ethanol] were 78.4%, 61.4%, 70.2%, 71.2% and 67.4%.
Turning to `CC(C)=CCCC(C)CCOC(=O)C=C(C)C` (stereo not shown) [citronellyl methylcrotonate, reference compound], the “% Reduction of Axilla” value in experiment [2] was 53.1%.
